Experimental data as given in patent US10738057B2, “Tertiary alcohols as PI3K-γ inhibitors” (Incyte Corporation, priority 2017, dated 2020).
Structures can show the parent of a compound that is named as a salt. Where two headings read alike, the source gives them in different places.

Assays:
[1] = target: PI3Kγ (p110γ) Recombinant Human Protein (Homo sapiens (Human), UniProt P48736); assay: PI3K-γ scintillation proximity assay; type: biochemical; conditions: 20 μM PIP2, 2 μM ATP, 13 nM PI3Kγ, 120 min, room temperature
PI3Kγ (p110γ) Recombinant Human Protein, sequence (P48736 whole entry): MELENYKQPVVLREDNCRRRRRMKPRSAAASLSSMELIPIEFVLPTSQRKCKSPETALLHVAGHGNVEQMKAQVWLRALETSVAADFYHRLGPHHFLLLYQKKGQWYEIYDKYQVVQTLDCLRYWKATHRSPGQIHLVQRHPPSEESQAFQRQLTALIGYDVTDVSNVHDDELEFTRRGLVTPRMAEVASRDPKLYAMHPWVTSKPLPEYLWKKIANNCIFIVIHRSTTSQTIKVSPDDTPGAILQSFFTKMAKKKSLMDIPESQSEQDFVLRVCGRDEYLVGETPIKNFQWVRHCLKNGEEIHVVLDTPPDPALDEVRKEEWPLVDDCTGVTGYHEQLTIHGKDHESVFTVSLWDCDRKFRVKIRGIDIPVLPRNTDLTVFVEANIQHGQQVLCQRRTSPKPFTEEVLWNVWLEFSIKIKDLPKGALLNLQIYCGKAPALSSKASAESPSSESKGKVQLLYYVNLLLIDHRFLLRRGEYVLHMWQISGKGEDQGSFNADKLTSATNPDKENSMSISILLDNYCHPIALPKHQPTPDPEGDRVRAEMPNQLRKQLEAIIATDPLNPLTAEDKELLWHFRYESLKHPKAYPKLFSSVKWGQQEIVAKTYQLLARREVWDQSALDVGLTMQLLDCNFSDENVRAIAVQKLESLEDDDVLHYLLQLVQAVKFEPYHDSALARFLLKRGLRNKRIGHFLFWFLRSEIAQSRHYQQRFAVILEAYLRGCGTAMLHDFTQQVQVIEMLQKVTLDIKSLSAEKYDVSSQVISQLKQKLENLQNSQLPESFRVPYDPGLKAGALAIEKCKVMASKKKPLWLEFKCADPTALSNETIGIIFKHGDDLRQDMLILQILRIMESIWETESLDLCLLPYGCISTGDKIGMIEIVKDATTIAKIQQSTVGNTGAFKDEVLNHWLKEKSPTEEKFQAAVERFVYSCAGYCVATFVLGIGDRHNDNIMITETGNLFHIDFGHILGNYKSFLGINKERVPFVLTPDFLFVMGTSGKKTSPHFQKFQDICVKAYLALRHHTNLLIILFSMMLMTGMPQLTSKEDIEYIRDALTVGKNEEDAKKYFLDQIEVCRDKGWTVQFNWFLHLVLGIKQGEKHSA
From the text: Example B. PI3K-γ Scintillation Proximity Assay
[γ-^33P]ATP (10 mCi/mL) and Wheat Germ Agglutinin (WGA) YSi SPA Scintillation Beads was purchased from PerkinElmer (Waltham, Mass.). Lipid kinase substrate, D-myo-Phosphatidylinositol 4,5-bisphosphate (PtdIns(4,5)P2)D (+)-sn-1,2-di-O-octanoylglyceryl, 3-O-phospho linked (PIP2), CAS 204858-53-7, was purchased from Echelon Biosciences (Salt Lake City, Utah). PI3Kγ (p110γ) Recombinant Human Protein was purchased from Life technology (Grand Island, N.Y.). ATP, MgCl2, DTT, EDTA, MOPS and CHAPS were purchased from SigmaAldrich (St. Louis, Mo.).
(§1) The kinase reaction was conducted in polystyrene 384-well Greiner Bio-one white plate from Thermo Fisher Scientific in a final volume of 25 μL. Inhibitors were first diluted serially in DMSO and added to the plate wells before the addition of other reaction components. The final concentration of DMSO in the assay was 2%. The PI3Kγ assay was carried out at room temperature in 20 mM MOPS, pH 6.7, 10 mM MgCl2, 5 mM DTT and CHAPS 0.03%. Reactions were initiated by the addition of ATP, the final reaction mixture consisted of 20 μM PIP2, 2 μM ATP, 0.5 μCi [γ-^33P] ATP, 13 nM PI3Kγ. Reactions were incubated for 120 min and terminated by the addition of 40 μL SPA beads suspended in quench buffer: 163 mM potassium phosphate pH 7.8, 20% glycerol, 25 mM EDTA. The final concentration of SPA beads is 1.0 mg/mL. After the plate sealing, plates were shaken overnight at room temperature and centrifuged at 1500 rpm for 10 min, the radioactivity of the product was determined by scintillation counting on Topcount (Perkin-Elmer). IC50 determination was performed by fitting the curve of percent of the solvent control activity versus the log of the inhibitor concentration using the GraphPad Prism 6.0 software.

[2] = target: PI3Kδ (p110δ/p85α) Recombinant Human Protein (Homo sapiens (Human), UniProt O00329); assay: PI3Kδ scintillation proximity assay; type: biochemical; conditions: 20 μM PIP2, 2 μM ATP, 3.4 nM PI3Kδ, 120 min, room temperature
PI3Kδ (p110δ/p85α) Recombinant Human Protein, sequence (O00329 whole entry): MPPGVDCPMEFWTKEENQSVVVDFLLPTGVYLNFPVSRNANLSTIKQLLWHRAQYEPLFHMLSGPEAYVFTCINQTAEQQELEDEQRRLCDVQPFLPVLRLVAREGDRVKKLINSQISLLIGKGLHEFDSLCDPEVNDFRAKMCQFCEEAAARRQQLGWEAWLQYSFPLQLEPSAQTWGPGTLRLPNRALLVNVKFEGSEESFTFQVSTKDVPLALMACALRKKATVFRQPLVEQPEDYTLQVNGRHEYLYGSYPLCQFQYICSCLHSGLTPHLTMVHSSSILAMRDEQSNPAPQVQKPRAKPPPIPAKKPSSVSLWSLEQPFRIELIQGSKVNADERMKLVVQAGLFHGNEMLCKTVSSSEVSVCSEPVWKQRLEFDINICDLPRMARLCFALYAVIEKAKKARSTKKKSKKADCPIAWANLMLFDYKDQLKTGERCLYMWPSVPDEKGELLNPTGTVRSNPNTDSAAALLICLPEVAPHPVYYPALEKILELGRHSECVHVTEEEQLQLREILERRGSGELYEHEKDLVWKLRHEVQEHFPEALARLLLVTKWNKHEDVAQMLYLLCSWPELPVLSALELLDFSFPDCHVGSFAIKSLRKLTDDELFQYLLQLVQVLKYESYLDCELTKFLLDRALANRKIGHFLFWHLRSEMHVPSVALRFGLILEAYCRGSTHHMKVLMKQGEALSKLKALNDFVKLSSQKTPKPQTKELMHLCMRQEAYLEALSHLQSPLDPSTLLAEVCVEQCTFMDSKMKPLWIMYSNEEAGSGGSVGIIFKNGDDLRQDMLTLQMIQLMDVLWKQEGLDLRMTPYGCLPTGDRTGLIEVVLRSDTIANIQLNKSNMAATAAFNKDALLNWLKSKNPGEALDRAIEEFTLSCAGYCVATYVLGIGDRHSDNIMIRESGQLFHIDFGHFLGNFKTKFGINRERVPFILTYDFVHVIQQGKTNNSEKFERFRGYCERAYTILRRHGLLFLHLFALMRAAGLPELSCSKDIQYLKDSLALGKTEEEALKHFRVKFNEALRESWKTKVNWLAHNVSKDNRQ
PI3Kδ (p110δ/p85α) Recombinant Human Protein, sequence (P27986 whole entry partner): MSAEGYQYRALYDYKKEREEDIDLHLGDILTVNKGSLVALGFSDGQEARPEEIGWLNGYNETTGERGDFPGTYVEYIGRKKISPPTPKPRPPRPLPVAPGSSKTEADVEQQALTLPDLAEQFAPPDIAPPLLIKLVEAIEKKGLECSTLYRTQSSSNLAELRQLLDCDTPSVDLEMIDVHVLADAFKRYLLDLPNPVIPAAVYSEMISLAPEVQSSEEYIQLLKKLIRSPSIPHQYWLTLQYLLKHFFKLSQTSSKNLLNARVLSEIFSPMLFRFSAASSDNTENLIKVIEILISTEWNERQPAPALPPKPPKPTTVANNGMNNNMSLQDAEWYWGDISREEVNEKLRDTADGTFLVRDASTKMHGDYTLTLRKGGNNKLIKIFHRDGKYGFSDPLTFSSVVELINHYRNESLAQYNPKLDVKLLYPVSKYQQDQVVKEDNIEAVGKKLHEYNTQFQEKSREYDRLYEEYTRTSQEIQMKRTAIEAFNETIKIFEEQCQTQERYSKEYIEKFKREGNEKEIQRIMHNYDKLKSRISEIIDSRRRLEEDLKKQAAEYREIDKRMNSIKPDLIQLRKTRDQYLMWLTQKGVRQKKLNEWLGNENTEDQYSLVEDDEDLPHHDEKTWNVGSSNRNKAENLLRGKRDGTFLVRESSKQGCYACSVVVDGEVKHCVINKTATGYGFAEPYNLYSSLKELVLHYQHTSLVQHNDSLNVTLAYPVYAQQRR
Protocol: PI3Kδ Scintillation Proximity Assay
[γ-^33P]ATP (10 mCi/mL) and Wheat Germ Agglutinin (WGA) YSi SPA Scintillation Beads was purchased from PerkinElmer (Waltham, Mass.). […] PI3Kδ (p110δ/p85α) Recombinant Human Protein was purchased from Eurofins (St Charles, Mo.). ATP, MgCl2, DTT, EDTA, MOPS and CHAPS were purchased from SigmaAldrich (St. Louis, Mo.).
as §1, with “PI3Kδ” for “PI3Kγ”, “ATP, 13 nM PI3Kγ. Reactions were incubated for 120 min and terminated by the addition of 40 μL SPA beads suspended in quench buffer: 163 mM potassium phosphate pH 7.8, 20% glycerol, 25 mM EDTA.” left out, “(PerkinElmer).” for “(Perkin-Elmer).”

[3] = system: Phosphorylated Ribosomal Protein S6 (RPS6) in THP-1 cells; assay: THP-1 RPS6 ELISA assay; type: cell-based, Human; conditions: serum starved, 2 h compound, 10 nM MCP-1 for 15 min, phospho-RPS6 ELISA, read-out: PI3Kγ_THP1_RPS6_ELISA IC50
Protocol: Example A. THP-1 RPS6 ELISA Assay
To measure the Phosphorylated Ribosomal Protein S6 (RPS6) in cell lysates, THP-1 cells (Human Acute Monocytic Leukemia) are purchased from ATCC (Manassas, Va.) and maintained in RPMI with 10% FBS (Gibco/Life Technologies, Carlsbad, Calif.). For the assay, THP-1 cells are serum starved overnight in RPMI, then plated in RPMI (2×10^5 cells/well in 90 μL) into 96-well flat-bottom tissue culture treated plates (Corning, Corning, N.Y.), in the presence or absence of a concentration range of test compounds. Covered plates are incubated for 2 hours at 37° C., 5% CO2 then treated with or without 10 nM MCP-1 (MYBioSource, San Diego, Calif.) for 15 minutes at 37° C., 5% CO2. Plates are centrifuged at 1600 RPM and supernatants are removed. Cells are lysed in Lysis Buffer (Cell Signaling, Danvers, Mass.) with Protease Inhibitor (Calbiochem/EMD, Germany), PMSF (Sigma, St Louis Mo.), HALTS (Thermo Fisher, Rockford, Ill.) for 30 min on wet ice. Cell lysates are frozen at −80° C. before testing. The lysates are tested in the Human/Mouse/Rat Phospho-RPS6 ELISA (R&D Systems, Inc. Minn, Minn.). The plate is measured using a microplate reader (SpectraMax M5—Molecular Devices, LLC Sunnyvale, Calif.) set to 450 nm with a wavelength correction of 540. IC50 determination is performed by fitting the curve of inhibitor percent inhibition versus the log of the inhibitor concentration using the GraphPad Prism 5.0 software.

[4] = Homo sapiens, THP-1, THP-1 cells

| Structure (SMILES) | IC50 [1] | IC50 ([2]; read-out: PI3Kδ IC50) | IC50 [3, 4] | IC50 ([3]; THP-1 cells) | IC50 ([2]; PI3Kδ IC50 (nM)) |
| --- | --- | --- | --- | --- | --- |
| Cc1ccc(C(O)(C(=O)NC2(C)CNC2)C(F)(F)F)cc1-c1cnc2c(N)nc(C(F)(F)F)cn12 (stereo not drawn) [Example 128, 2-(3-(8-Amino-6-(trifluoromethyl)imidazo[1,2-a]pyrazin-3-yl)-4-methylphenyl)-3,3,3-trifluoro-2-hydroxy-N-(3-methylazetidin-3-yl)propanamide trifluoroacetate salt] | < 0.1 µM | < 100 nM | < 0.1 µM |  |  |
| Cc1ccc(C(C)(O)C(F)F)cc1-c1cnc2c(N)nc(-c3ccnc(CO)c3)cn12 (single isomer, unassigned) [Example 44, 2-(3-(8-Amino-6-(2-(hydroxymethyl)pyridin-4-yl)imidazo[1,2-a]pyrazin-3-yl)-4-methylphenyl)-1,1-difluoropropan-2-ol] | < 0.1 µM | < 100 nM | < 0.1 µM |  |  |
| [2H]C([2H])([2H])NC(=O)C(O)(c1ccc(C)c(-c2cnc3c(N)nc(C(=O)NC(CC#N)C(F)(F)F)cn23)c1)C(F)(F)F (stereo not drawn) [Example 289, 8-Amino-N-(3-cyano-1,1,1-trifluoropropan-2-yl)-3-(2-methyl-5-(1,1,1-trifluoro-2-hydroxy-3-((methyl-d3)amino)-3-oxopropan-2-yl)phenyl)imidazo[1,2-a]pyrazine-6-carboxamide trifluoroacetate salt] | < 0.1 µM | 100 to 500 nM | < 0.1 µM |  |  |
| Cc1ccc(C(C)(O)C(F)F)cc1-c1cnc2c(N)nc(-n3cncn3)cn12 (stereo not drawn) [Example 49, 2-(3-(8-Amino-6-(1H-1,2,4-triazol-1-yl)imidazo[1,2-a]pyrazin-3-yl)-4-methylphenyl)-1,1-difluoropropan-2-ol] | < 0.1 µM | 100 to 500 nM | 0.1 to 0.5 µM |  |  |
| Cc1ccc(C(C)(O)C(F)F)cc1-c1cnc2c(N)nc(C3CC3C(=O)NC(C)(C)CO)cn12 (stereo not drawn) [Example 78, 2-(8-Amino-3-(5-(1,1-difluoro-2-hydroxypropan-2-yl)-2-methylphenyl)imidazo[1,2-a]pyrazin-6-yl)-N-(1-hydroxy-2-methylpropan-2-yl)cyclopropane-1-carboxamide] | < 0.1 µM | 100 to 500 nM | 0.1 to 0.5 µM |  |  |
| Cc1ccc(C(C)(O)C(F)F)cc1-c1cnc2c(N)nc(-c3cnn(C)c3)cn12 (stereo not drawn) [Example 37, 2-(3-(8-Amino-6-(1-methyl-1H-pyrazol-4-yl)imidazo[1,2-a]pyrazin-3-yl)-4-methylphenyl)-1,1-difluoropropan-2-ol] | < 0.1 µM | < 100 nM | < 0.1 µM |  |  |
| Cc1ccc(C(C)(O)CF)cc1-c1cnc2c(N)nc(C(F)(F)F)cn12 (racemic) [Example 24, 2-(3-(8-Amino-6-(trifluoromethyl)imidazo[1,2-a]pyrazin-3-yl)-4-methylphenyl)-1-fluoropropan-2-ol trifluoroacetate salt] | < 0.1 µM | 500 to 2000 nM | 0.5 to 1 µM |  |  |
| Cc1ccc(C(O)(C(N)=O)C(F)(F)F)cc1-c1cnc2c(N)nc(C(=O)NC3CCOCC3)cn12 (stereo not drawn) [Example 285, 8-Amino-3-(5-(3-amino-1,1,1-trifluoro-2-hydroxy-3-oxopropan-2-yl)-2-methylphenyl)-N-(tetrahydro-2H-pyran-4-yl)imidazo[1,2-a]pyrazine-6-carboxamide] | < 0.1 µM | 500 to 2000 nM | 0.1 to 0.5 µM |  |  |
| Cc1ccc(C(C)(O)C(F)(F)C(F)(F)F)cc1-c1cnc2c(N)nc(C(F)(F)F)cn12 (single isomer, unassigned) [Example 60, 2-(3-(8-Amino-6-(trifluoromethyl)imidazo[1,2-a]pyrazin-3-yl)-4-methylphenyl)-3,3,4,4,4-pentafluorobutan-2-ol] | < 0.1 µM | 500 to 2000 nM | > 1 µM |  |  |
| Cc1ccc(C(C)(O)C(F)(F)F)cc1-c1cnc2c(N)nc(-c3ccnc(CO)c3)cn12 (single isomer, unassigned) [Example 12, 2-(3-(8-amino-6-(2-(hydroxymethyl)pyridin-4-yl)imidazo[1,2-a]pyrazin-3-yl)-4-methylphenyl)-1,1,1-trifluoropropan-2-ol] | < 0.1 µM | < 100 nM |  | < 0.1 µM |  |
| Cc1ccc(C(O)(C(N)=O)C(F)(F)F)cc1-c1cnc2c(N)nc(C(=O)NC3(C4CC4)CCOC3)cn12 (stereo not drawn) [Example 83, 8-Amino-3-(5-(3-amino-1,1,1-trifluoro-2-hydroxy-3-oxopropan-2-yl)-2-methylphenyl)-N-(3-cyclopropyltetrahydrofuran-3-yl)imidazo[1,2-a]pyrazine-6-carboxamide trifluoroacetate salt] | < 0.1 µM | 100 to 500 nM | < 0.1 µM |  |  |
| Cc1ccc(C(O)(C(N)=O)C(F)(F)F)cc1-c1cnc2c(N)nc(C(=O)NC3(C)CCOC3C)cn12 (stereo not drawn) [Example 84, 8-Amino-3-(5-(3-amino-1,1,1-trifluoro-2-hydroxy-3-oxopropan-2-yl)-2-methylphenyl)-N-(2,3-dimethyltetrahydrofuran-3-yl)imidazo[1,2-a]pyrazine-6-carboxamide, trifluoroacetate] | < 0.1 µM | 100 to 500 nM | 0.1 to 0.5 µM |  |  |
| CNCCC(O)(c1ccc(C)c(-c2cnc3c(N)nc(C(F)(F)F)cn23)c1)C(F)(F)F (stereo not drawn) [Example 14, 2-(3-(8-Amino-6-(trifluoromethyl)imidazo[1,2-a]pyrazin-3-yl)-4-methylphenyl)-1,1,1-trifluoro-4-(methylamino)butan-2-ol bis(2,2,2-trifluoroacetate)] | < 0.1 µM |  | < 0.1 µM |  | 100 to 500 nM |
| Cc1ccc(C(C)(O)C(F)(F)F)cc1-c1cnc2c(N)nc(C(F)(F)F)cn12 (single isomer, unassigned) [Example 6, 2-(3-(8-Amino-6-(trifluoromethyl)imidazo[1,2-a]pyrazin-3-yl)-4-methylphenyl)-1,1,1-trifluoropropan-2-ol] | < 0.1 µM | 100 to 500 nM |  | 0.1 to 0.5 µM |  |
| Cc1ccc(C(C)(O)C(F)F)cc1-c1cnc2c(N)nc(-c3ccn(C)n3)cn12 (stereo not drawn) [Example 43, 2-(3-(8-Amino-6-(1-methyl-1H-pyrazol-3-yl)imidazo[1,2-a]pyrazin-3-yl)-4-methylphenyl)-1,1-difluoropropan-2-ol] | < 0.1 µM | 100 to 500 nM | 0.5 to 1 µM |  |  |
